US10988466B2, “Heterocyclic derivatives useful as SHP2 inhibitors” (Jacobio Pharmaceuticals Co., Ltd., priority 2017, dated 2021)

Target: T1, SHP2 (Homo sapiens, UniProt Q06124)
T1 sequence (Q06124 1-593): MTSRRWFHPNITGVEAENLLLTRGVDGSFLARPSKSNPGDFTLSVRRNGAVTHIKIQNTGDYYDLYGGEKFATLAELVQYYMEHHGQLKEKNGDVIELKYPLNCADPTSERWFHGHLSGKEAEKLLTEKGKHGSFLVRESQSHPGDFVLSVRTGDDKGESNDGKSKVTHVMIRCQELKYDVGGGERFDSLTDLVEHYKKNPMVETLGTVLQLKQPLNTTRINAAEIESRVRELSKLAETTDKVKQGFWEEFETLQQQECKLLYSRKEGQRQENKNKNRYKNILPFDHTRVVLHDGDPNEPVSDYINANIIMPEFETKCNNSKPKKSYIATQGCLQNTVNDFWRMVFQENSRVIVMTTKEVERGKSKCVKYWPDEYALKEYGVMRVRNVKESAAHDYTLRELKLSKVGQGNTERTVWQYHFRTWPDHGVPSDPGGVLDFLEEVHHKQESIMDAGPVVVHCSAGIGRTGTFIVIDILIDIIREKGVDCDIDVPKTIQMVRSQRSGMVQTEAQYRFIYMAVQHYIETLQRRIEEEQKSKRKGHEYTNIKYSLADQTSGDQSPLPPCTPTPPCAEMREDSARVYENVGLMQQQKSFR
Test: biochemical
Conditions: read-out: SHP2 inhibition (%)@0.1 μM
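Further: compounds preincubated 30 min at room temperature in the assay mixture, activity referenced to a 0.5% (v/v) DMSO control taken as 100%, run in triplicate.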

SMILES	inhibition at 0.1 µM
CC(C)(C)c1cc2c(s1)CC1(CCN(c3cnc(Sc4ccnc(N)c4Cl)c(N)n3)CC1)[C@@H]2N [Example 79, (S)-1′-(6-amino-5-((2-amino-3-chloropyridin-4-yl)thio)pyrazin-2-yl)-2-(tert-butyl)-4,6-dihydro-spiro[cyclopenta [b]thiophene-5,4′-piperidin]-4-amine]	58%
CN1CCN(c2ccc3c(c2)[C@@H](N)C2(CCN(c4cnc(Sc5ccnc(N)c5Cl)c(N)n4)CC2)C3)CC1 [Example 75, (S)-1′-(6-amino-5-((2-amino-3-chloropyridin-4-yl)thio)pyrazin-2-yl)-6-(4-methylpiperazin-1-yl)-1,3-dihydrospiro [indene-2,4′-piperidin]-1-amine]	16%
N=C1c2ccccc2CC12CCN(c1cnc(Sc3ccnc(N)c3Cl)c(N)n1)CC2 [Example 142, 3-((2-amino-3-chloropyridin-4-yl)thio)-6-(1-imino-1,3-dihydrospiro[indene-2,4′-piperidin]-1′-yl)pyrazin-2-amine]	17%
Nc1nc(N2CCC3(CC2)Cc2ccc(N4CCOCC4=O)cc2[C@H]3N)cnc1Sc1ccnc(N)c1Cl [Example 62, (S)-4-(1-amino-1′-(6-amino-5-((2-amino-3-chloropyridin-4-yl)thio)pyrazin-2-yl)-1,3-dihydrospiro [indene-2,4′-piperidin]-6-yl) morpholin-3-one]	76%
COc1cc2c(cc1Cl)[C@@H](N)C1(CCN(c3cnc(Sc4ccnc(N)c4Cl)c(N)n3)CC1)C2 [Example 32, (S)-1′-(6-amino-5-((2-amino-3-chloropyridin-4-yl)thio)pyrazin-2-yl)-6-chloro-5-methoxy-1,3-dihydrospiro[indene-2,4′-piperidin]-1-amine]	85%
Nc1nc(N2CCC3(CC2)Cc2c(ccc4ccccc24)[C@H]3N)cnc1Sc1ccnc(N)c1Cl [Example 31, (S)-1′-(6-amino-5-((2-amino-3-chloropyridin-4-yl)thio)pyrazin-2-yl)-1,3-dihydrospiro[cyclopenta [a]naphthalene-2,4′-piperidin]-3-amine]	70%
Nc1nc(N2CCC3(CC2)[C@H](N)c2ccccc2[C@H]3N)cnc1Sc1ccnc(N)c1Cl [Example 67, (1R,3R)-1′-(6-amino-5-((2-amino-3-chloropyridin-4-yl)thio)pyrazin-2-yl)-1,3-dihydrospiro[indene-2,4′-piperidine]-1,3-diamine]	63%
Nc1nc(N2CCC3(CC2)Cc2c(Br)cccc2[C@H]3N)cnc1Sc1ccnc(N)c1Cl [Example 29, (S)-1′-(6-amino-5-((2-amino-3-chloropyridin-4-yl)thio)pyrazin-2-yl)-4-bromo-1,3-dihydro-spiro[indene-2,4′-piperidin]-1-amine]	77%
Nc1nccc(Sc2cnc(N3CCC4(CC3)Cc3ccccc3[C@H]4N)cn2)c1Cl [Example 48, (S)-1′-(5-((2-amino-3-chloropyridin-4-yl)thio)pyrazin-2-yl)-1,3-dihydro-spiro[indene-2,4′-piperidin]-1-amine]	81%
N#Cc1cccc2c1CC1(CCN(c3cnc(Sc4ccnc(N)c4Cl)c(N)n3)CC1)[C@@H]2N [Example 16, (S)-1-amino-1′-(6-amino-5-((2-amino-3-chloropyridin-4-yl)thio)pyrazin-2-yl)-1,3-dihydrospiro [indene-2,4′-piperidine]-4-carbonitrile]	75%
Nc1nc(N2CCC3(CC2)Oc2ncccc2[C@H]3N)cnc1Sc1ccnc(N)c1Cl [Example 96]	66%
Nc1ccc2c(c1)[C@@H](N)C1(CCN(c3cnc(Sc4ccnc(N)c4Cl)c(N)n3)CC1)C2 [Example 33, (S)-1′-(6-amino-5-((2-amino-3-chloropyridin-4-yl)thio)pyrazin-2-yl)-1,3-dihydrospiro[indene-2,4′-piperidine]-1,6-diamine]	81%
C[S+]([O-])c1ccc2c(c1)[C@@H](N)C1(CCN(c3cnc(Sc4ccnc(N)c4Cl)c(N)n3)CC1)C2 (stereo partly drawn) [Example 25, (1S)-1′-(6-amino-5-((2-amino-3-chloropyridin-4-yl)thio)pyrazin-2-yl)-6-(methylsulfinyl)-1,3-dihydrospiro [indene-2,4′-piperidin]-1-amine]	72%
CS(=O)(=O)Nc1ccc2c(c1)[C@@H](N)C1(CCN(c3cnc(Sc4ccnc(N)c4Cl)c(N)n3)CC1)C2 [Example 63, (S)-N-(1-amino-1′-(6-amino-5-((2-amino-3-chloropyridin-4-yl)thio)pyrazin-2-yl)-1,3-dihydrospiro [indene-2,4′-piperidin]-6-yl)methane-sulfonamide]	93%
Nc1nc(N2CCC3(CC2)Cc2cc(Br)ccc2[C@H]3N)cnc1Sc1ccnc(N)c1Cl [Example 47, (S)-1′-(6-amino-5-((2-amino-3-chloropyridin-4-yl)thio)pyrazin-2-yl)-5-bromo-1,3-dihydro-spiro[indene-2,4′-piperidin]-1-amine]	81%
NC(=O)c1cc2c(cc1F)CC1(CCN(c3cnc(Sc4ccnc(N)c4Cl)c(N)n3)CC1)[C@@H]2N [Example 43, (S)-1-amino-1′-(6-amino-5-((2-amino-3-chloropyridin-4-yl)thio)pyrazin-2-yl)-5-fluoro-1,3-dihydro-spiro[indene-2, 4′-piperidine]-6-carboxamide]	79%
Nc1nc(N2CCC3(CC2)Cc2cnccc2[C@@H]3N)cnc1Sc1ccnc(N)c1Cl [Example 65, (R)-1′-(6-amino-5-((2-amino-3-chloropyridin-4-yl)thio)pyrazin-2-yl)-5,7-dihydrospiro[cyclopenta [c]pyridine-6,4′-piperidin]-5-amine]	0%

Results, then the molecule that gave them:

inhibition at 0.1 µM	SMILES
81%	Nc1nc(N2CCC3(CC2)Cc2ncccc2[C@H]3N)cnc1Sc1cc(F)ncc1Cl [Example 102, (S)-1′-(6-amino-5-((5-chloro-2-fluoropyridin-4-yl)thio)pyrazin-2-yl)-5,7-dihydro-spiro[cyclopenta[b]pyridine-6,4′-piperidin]-5-amine]
81%	Nc1cccc(Sc2ncc(N3CCC4(CC3)Cc3ncccc3C4N)nc2N)c1Cl (centres unmarked) [Example 126, 1′-(6-amino-5-((3-amino-2-chlorophenyl)thio)pyrazin-2-yl)-5,7-dihydrospiro[cyclo-penta[b]pyridine-6,4′-piperidin]-5-amine]
83%	N[C@@H]1c2cccnc2CC12CCN(c1cnc(Sc3cc(F)ncc3Cl)cn1)CC2 [Example 101, (S)-1′-(5-((5-chloro-2-fluoro-pyridin-4-yl)thio)pyrazin-2-yl)-5,7-dihydrospiro[cyclopenta [b]pyridine-6,4′-piperidin]-5-amine]
78%	Nc1nc(N2CCC3(CC2)Cc2ccccc2[C@H]3N)cnc1Sc1ccnc(O)c1Cl [Example 134, (S)-4-((3-amino-5-(1-amino-1,3-dihydrospiro[indene-2,4′-piperidin]-1′-yl)pyrazin-2-yl)thio)-3-chloropyridin-2-ol]
81%	N#Cc1ncccc1Sc1cnc(N2CCC3(CC2)Cc2ncccc2[C@H]3N)cn1 [Example 117, (S)-3-((5-(5-amino-5,7-dihydrospiro [cyclopenta[b]pyridine-6,4′-piperidin]-1′-yl)pyrazin-2-yl)thio) picolinonitrile]
78%	Nc1nc(N2CCC3(CC2)Cc2ccccc2[C@H]3N)cnc1Sc1cccc2[nH]cc(F)c12 [Example 157, (S)-1′-(6-amino-5-((3-fluoro-1H-indol-4-yl)thio)pyrazin-2-yl)-1,3-dihydrospiro[indene-2,4′-piperidin]-1-amine]
84%	Nc1nc(N2CCC3(CC2)Cc2ccccc2C3N)cnc1Sc1ccnc(N)c1Cl (centres unmarked) [Example 124, 1′-(6-amino-5-((2-amino-3-chloropyridin-4-yl)thio)pyrazin-2-yl)-1,3-dihydrospiro [indene-2,4′-piperidin]-1-amine]
83%	Nc1nccc(Sc2cnc(N3CCC4(CC3)Cc3sc(Cl)nc3C4N)cn2)c1Cl (centres unmarked) [Example 131, 1′-(5-((2-amino-3-chloropyridin-4-yl)thio)pyrazin-2-yl)-2-chloro-4,6-dihydrospiro [cyclopenta[d]thiazole-5,4′-piperidin]-4-amine]
86%	N[C@@H]1c2cccnc2CC12CCN(c1cnc(Sc3ccnc(F)c3Cl)cn1)CC2 [Example 115, (S)-1′-(5-((3-chloro-2-fluoropyridin-4-yl)thio)pyrazin-2-yl)-5,7-dihydrospiro [cyclopenta[b]pyridine-6,4′-piperidin]-5-amine]
78%	Nc1nccc(Sc2cnc(N3CCC4(CC3)c3ccccc3CC4N)cn2)c1Cl (centres unmarked) [Example 132, 1′-(5-((2-amino-3-chloropyridin-4-yl)thio)pyrazin-2-yl)-2,3-dihydrospiro[indene-1,4′-piperidin]-2-amine]
82%	Nc1nccc(Sc2cnc(N3CCC4(CC3)Cc3scnc3C4N)cn2)c1Cl (centres unmarked) [Example 154, 1′-(5-((2-amino-3-chloropyridin-4-yl)thio)pyrazin-2-yl)-4,6-dihydrospiro[cyclopenta[d]thiazole-5,4′-piperidin]-4-amine]
87%	Nc1nc(N2CCC3(CC2)Cc2ncccc2[C@H]3N)cnc1Sc1cc(Cl)ncc1C(F)(F)F [Example 120, (S)-1′-(6-amino-5-((2-chloro-5-(trifluoromethyl)pyridin-4-yl)thio)pyrazin-2-yl)-5,7-dihydrospiro [cyclopenta[b]pyridine-6,4′-piperidin]-5-amine]
